For one compound, Ki results are on record in BindingDB's records for doi:10.1021/acs.jmedchem.8b01226 (Recordati, 2019).

This test deals with Metabotropic glutamate receptor 1 (Rattus norvegicus, UniProt P23385). Briefly: Displacement of […] from rat mGlu1 receptor expressed in CHO-TREx cell membranes after 30 mins by liquid scintillation spectrometric analysis. Background: Loss of bound radioactivity is the signal in a displacement assay; it reports binding, not function.

A value given as a limit tells only on which side of the number the result lay.

Sequence of Metabotropic glutamate receptor 1 (P23385 whole entry): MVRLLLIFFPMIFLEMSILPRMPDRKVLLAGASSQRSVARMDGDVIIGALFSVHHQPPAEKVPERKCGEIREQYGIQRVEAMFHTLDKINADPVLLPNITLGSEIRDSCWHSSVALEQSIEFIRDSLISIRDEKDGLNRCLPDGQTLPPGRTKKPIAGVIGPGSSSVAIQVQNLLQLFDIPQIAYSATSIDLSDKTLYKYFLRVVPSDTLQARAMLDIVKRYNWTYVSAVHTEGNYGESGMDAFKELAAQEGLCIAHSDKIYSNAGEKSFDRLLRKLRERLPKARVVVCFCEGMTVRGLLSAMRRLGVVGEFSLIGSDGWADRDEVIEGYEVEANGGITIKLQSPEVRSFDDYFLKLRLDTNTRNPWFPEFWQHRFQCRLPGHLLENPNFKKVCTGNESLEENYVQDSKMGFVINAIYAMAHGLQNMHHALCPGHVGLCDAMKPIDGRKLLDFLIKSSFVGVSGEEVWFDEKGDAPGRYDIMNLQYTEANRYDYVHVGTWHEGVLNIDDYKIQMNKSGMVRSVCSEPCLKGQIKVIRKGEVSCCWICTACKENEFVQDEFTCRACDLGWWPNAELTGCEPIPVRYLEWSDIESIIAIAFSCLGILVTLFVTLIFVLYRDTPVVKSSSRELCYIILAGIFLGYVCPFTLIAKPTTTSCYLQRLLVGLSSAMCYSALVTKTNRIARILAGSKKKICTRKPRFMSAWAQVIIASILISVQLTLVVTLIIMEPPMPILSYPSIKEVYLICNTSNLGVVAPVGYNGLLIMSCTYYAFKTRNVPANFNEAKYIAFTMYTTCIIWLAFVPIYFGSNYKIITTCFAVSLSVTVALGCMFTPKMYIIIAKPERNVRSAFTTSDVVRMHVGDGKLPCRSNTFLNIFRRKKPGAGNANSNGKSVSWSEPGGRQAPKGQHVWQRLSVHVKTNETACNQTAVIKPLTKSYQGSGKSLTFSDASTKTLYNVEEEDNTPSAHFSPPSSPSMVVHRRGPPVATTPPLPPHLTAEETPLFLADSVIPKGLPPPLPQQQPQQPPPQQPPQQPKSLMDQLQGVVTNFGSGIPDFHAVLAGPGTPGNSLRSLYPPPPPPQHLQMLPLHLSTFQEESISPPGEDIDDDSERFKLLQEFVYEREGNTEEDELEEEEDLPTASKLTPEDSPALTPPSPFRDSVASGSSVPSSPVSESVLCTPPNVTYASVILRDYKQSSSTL

For `Cc1nc(C#Cc2cccnc2)cs1` [3-(2-(2-methylthiazol-4-yl)ethynyl)pyridine], the inhibitory constant (Ki) (usually the equilibrium dissociation constant of an inhibitor or competing ligand from its target) is > 10 µM.
